Bounds are passed on as bounds.

The target in the experiment is recombinant human His-ATG7 enzyme (Homo sapiens (Human), UniProt O95352). Kind of experiment: ATG7 Enzyme Assay (HTRF/FRET, ATG3-GST and Flag-Gabarap). It counts as biochemical. To be noted: for inhibition at 0.111 µM: Concentration 0.111 μM; for inhibition at 0.111 µM / inhibition at 0.069 µM / inhibition at 0.123 µM: read-out: Percent Inhibition; for inhibition at 0.069 µM: Concentration 0.069 μM; for inhibition at 0.123 µM: Concentration 0.123 μM. On the procedure:
Example 97: ATG7 Enzyme Assay
The total volume of the ATG7 enzymatic assay is 50 μL and contains 50 mM HEPES Hemisodium (pH 7.5), 0.05% BSA, 0.01% Tween-20, 25 mM NaCl, 5 mM MgCl2, 10 μM ATP, 250 μM GSH, 5 nM ATG3-GST, 5 nM Flag-Gabarap, 100 μM TCEP and 0.15 nM recombinant human His-ATG7 enzyme. The enzymatic reaction mixture, with and without inhibitor, was incubated at 24° C. for 105 min in a 384-well plate before termination with […] of Stop/Detection buffer (0.1M HEPES Hemisodium pH 7.5, 0.05% Tween20, 20 mM EDTA, 410 mM KF, 0.53 nM Europium-Cryptate labeled monoclonal anti-Flag M2 Antibody (CisBio International) and 8.125 μg/ml PHYCOLINK goat anti-GST allophycocyanin (XL-APC) antibody (Prozyme)). After incubation for 2 hours at 24° C., quantification of FRET is performed on the Pherostar™ (BMG Labtech). Percentage inhibition values at a single concentration or enzyme inhibition (IC50) values are determined from those curves. One skilled in the art will appreciate that the values generated either as percentage inhibition at a single concentration or IC50 values are subject to experimental variation.

recombinant human His-ATG7 enzyme, sequence (O95352 whole entry): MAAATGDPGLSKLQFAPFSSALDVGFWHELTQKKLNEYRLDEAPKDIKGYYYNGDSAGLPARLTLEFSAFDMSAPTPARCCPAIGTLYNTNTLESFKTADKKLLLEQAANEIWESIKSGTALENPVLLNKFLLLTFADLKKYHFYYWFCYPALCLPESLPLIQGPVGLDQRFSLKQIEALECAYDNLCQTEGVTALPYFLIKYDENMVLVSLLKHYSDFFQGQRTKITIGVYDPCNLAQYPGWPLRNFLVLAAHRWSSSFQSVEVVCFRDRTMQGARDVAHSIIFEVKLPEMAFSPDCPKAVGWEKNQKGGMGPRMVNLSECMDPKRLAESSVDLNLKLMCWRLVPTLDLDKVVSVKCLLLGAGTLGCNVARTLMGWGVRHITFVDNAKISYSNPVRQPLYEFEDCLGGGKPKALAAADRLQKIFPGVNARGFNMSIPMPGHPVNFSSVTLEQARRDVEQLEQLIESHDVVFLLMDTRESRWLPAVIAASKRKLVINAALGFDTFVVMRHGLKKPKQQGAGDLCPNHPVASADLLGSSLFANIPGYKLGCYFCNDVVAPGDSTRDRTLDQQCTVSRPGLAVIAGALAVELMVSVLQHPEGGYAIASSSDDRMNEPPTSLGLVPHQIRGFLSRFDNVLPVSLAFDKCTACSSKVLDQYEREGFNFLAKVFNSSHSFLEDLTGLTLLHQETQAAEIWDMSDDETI

As for `CC(C#N)Sc1nn([C@@H]2O[C@H](COS(N)(=O)=O)[C@@H](O)[C@@H]2F)c2ncnc(N)c12` (mixture of isomers) [Compound I-149, [(2R,3R,4S,5R)-5-(4-amino-3-{[(1R)-1-cyanoethyl]sulfanyl}-1H-pyrazolo[3,4-d]pyrimidin-1-yl)-4-fluoro-3-hydroxytetrahydrofuran-2-yl]methyl sulfamate and [(2R,3R,4S,5R)-5-(4-amino-3-{[(1S)-1-cyanoethyl]sulfanyl}-1H-pyrazolo[3,4-d]pyrimidin-1-yl)-4-fluoro-3-hydroxytetrahydrofuran-2-yl]methyl sulfamate], the IC50 is 20 to 50 nM and the inhibition at 0.111 µM is 82%.
In the case of `Nc1ncnc2c1c(CO)nn2[C@@H]1O[C@H](COS(N)(=O)=O)[C@@H](O)[C@H]1O` [Compound I-8, {(2R,3S,4R,5R)-5-[4-amino-3-(hydroxymethyl)-1H-pyrazolo[3,4-d]pyrimidin-1-yl]-3,4-dihydroxytetrahydrofuran-2-yl}methyl Sulfamate], the IC50 was in the range of 100 to 500 nM and the inhibition at 0.069 µM came out at 32%.
Regarding `Nc1ncnc2c1c(SCc1cccnc1)nn2[C@@H]1O[C@H](COS(N)(=O)=O)[C@@H](O)[C@@H]1F` [Compound I-121, [(2R,3R,4S,5R)-5-{4-amino-3-[(pyridin-3-ylmethyl)sulfanyl]-1H-pyrazolo[3,4-d]pyrimidin-1-yl}-4-fluoro-3-hydroxytetrahydrofuran-2-yl]methyl sulfamate], the half-maximal inhibitory concentration (IC50) is 50 to 100 nM and the inhibition at 0.111 µM came to 65%.
Turning to `COC(C)c1nn([C@@H]2O[C@H](COS(N)(=O)=O)[C@@H](O)[C@H]2O)c2ncnc(N)c12` (mixture of isomers) [Compound I-22, [(2R,3S,4R,5R)-5-{4-amino-3-[(1R)-1-methoxyethyl]-1H-pyrazolo[3,4-d]pyrimidin-1-yl}-3,4-dihydroxytetrahydrofuran-2-yl]methyl Sulfamate and [(2R,3S,4R,5R)-5-{4-amino-3-[(1S)-1-methoxyethyl]-1H-pyrazolo[3,4-d]pyrimidin-1-yl}-3,4-dihydroxytetrahydrofuran-2-yl]methyl Sulfamate], the concentration for half-maximal inhibition (IC50) was greater than 500 nM and the inhibition at 0.123 µM turned out to be 5%.
As for `N#CCc1nn([C@@H]2O[C@H](COS(N)(=O)=O)[C@@H](O)[C@H]2O)c2ncnc(N)c12` [Compound I-29, {(2R,3S,4R,5R)-5-[4-amino-3-(cyanomethyl)-1H-pyrazolo[3,4-d]pyrimidin-1-yl]-3,4-dihydroxytetrahydrofuran-2-yl}methyl Sulfamate], the IC50 is greater than 500 nM and the inhibition at 0.123 µM worked out at 26%.
With `CN1C(=O)Cc2cc(Sc3nn([C@H]4C[C@H](O)[C@@H](COS(N)(=O)=O)O4)c4ncnc(N)c34)ccc21` [Compound I-185, [(2R,3S,5R)-5-{4-amino-3-[(1-methyl-2-oxo-2,3-dihydro-1H-indol-5-yl)sulfanyl]-1H-pyrazolo[3,4-d]pyrimidin-1-yl}-3-hydroxytetrahydrofuran-2-yl]methyl sulfamate], the IC50 fell in the range of 50 to 100 nM and the inhibition at 0.111 µM was found to be 56%.
On to `CC(Sc1nn([C@@H]2O[C@H](COS(N)(=O)=O)[C@@H](O)[C@H]2O)c2ncnc(N)c12)c1ccccc1` (mixture of isomers) [Compound I-70, [(2R,3S,4R,5R)-5-(4-amino-3-{[(1R)-1-phenylethyl]sulfanyl}-1H-pyrazolo[3,4-d]pyrimidin-1-yl)-3,4-dihydroxytetrahydrofuran-2-yl]methyl sulfamate and [(2R,3S,4R,5R)-5-(4-amino-3-{[(1S)-1-phenylethyl]sulfanyl}-1H-pyrazolo[3,4-d]pyrimidin-1-yl)-3,4-dihydroxytetrahydrofuran-2-yl]methyl sulfamate], for which the IC50 lay in the range of 50 to 100 nM and the inhibition at 0.123 µM was determined as 70%.
With `Nc1ncnc2c1c(SCC1CCC1)nn2[C@@H]1O[C@H](COS(N)(=O)=O)[C@@H](O)[C@@H]1F` [Compound I-148, [(2R,3R,4S,5R)-5-{4-amino-3-[(cyclobutylmethyl)sulfanyl]-1H-pyrazolo[3,4-d]pyrimidin-1-yl}-4-fluoro-3-hydroxytetrahydrofuran-2-yl]methyl sulfamate], the IC50 is less than 20 nM and the inhibition at 0.111 µM came out at 83%.
On to `Nc1ncnc2c1c(C1CC1)nn2[C@@H]1O[C@H](COS(N)(=O)=O)[C@@H](O)[C@H]1O` [Compound I-26, [(2R,3S,4R,5R)-5-(4-amino-3-cyclopropyl-1H-pyrazolo[3,4-d]pyrimidin-1-yl)-3,4-dihydroxytetrahydrofuran-2-yl]methyl Sulfamate], for which the IC50 lay within 50 to 100 nM and the inhibition at 0.123 µM turned out to be 53%.
The corresponding values for `CC(C)Sc1nn([C@@H]2O[C@H](COS(N)(=O)=O)[C@@H](O)[C@H]2O)c2ncnc(N)c12` [Compound I-58, {(2R,3S,4R,5R)-5-[4-amino-3-(isopropylsulfanyl)-1H-pyrazolo[3,4-d]pyrimidin-1-yl]-3,4-dihydroxytetrahydrofuran-2-yl}methyl Sulfamate] are less than 20 nM and 87%.
Consider `NCc1nn([C@@H]2O[C@H](COS(N)(=O)=O)[C@@H](O)[C@H]2O)c2ncnc(N)c12` [Compound I-15, {(2R,3S,4R,5R)-5-[4-amino-3-(aminomethyl)-1H-pyrazolo[3,4-d]pyrimidin-1-yl]-3,4-dihydroxytetrahydrofuran-2-yl}methyl Sulfamate], for which the half-maximal inhibitory concentration (IC50) is greater than 500 nM and the inhibition at 0.069 µM worked out at 16%.
Consider `C=Cc1nn([C@@H]2O[C@H](COS(N)(=O)=O)[C@@H](O)[C@H]2O)c2ncnc(N)c12` [Compound I-18, [(2R,3S,4R,5R)-5-(4-amino-3-vinyl-1H-pyrazolo[3,4-d]pyrimidin-1-yl)-3,4-dihydroxytetrahydrofuran-2-yl]methyl Sulfamate], for which the IC50 was in the range of 50 to 100 nM and the inhibition at 0.123 µM was 62%.
As to `Nc1ncnc2c1c(Sc1ccc3ccccc3c1)nn2[C@H]1C[C@H](O)[C@@H](COS(N)(=O)=O)O1` [Compound I-166, {(2R,3S,5R)-5-[4-amino-3-(2-naphthylsulfanyl)-1H-pyrazolo[3,4-d]pyrimidin-1-yl]-3-hydroxytetrahydrofuran-2-yl}methyl sulfamate], the IC50 lay within 100 to 500 nM and the inhibition at 0.111 µM came out at 50%.
The like results for `Nc1ncnc2c1c(Sc1ccccn1)nn2[C@@H]1O[C@H](COS(N)(=O)=O)[C@@H](O)[C@@H]1F` [Compound I-113, {(2R,3R,4S,5R)-5-[4-amino-3-(pyridin-2-ylsulfanyl)-1H-pyrazolo[3,4-d]pyrimidin-1-yl]-4-fluoro-3-hydroxytetrahydrofuran-2-yl}methyl sulfamate] were, in that order, less than 20 nM and 89%.
In the case of `CC(C)(O)CSc1nn([C@@H]2O[C@H](COS(N)(=O)=O)[C@@H](O)[C@H]2O)c2ncnc(N)c12` [Compound I-28, [(2R,3S,4R,5R)-5-{4-amino-3-[(2-hydroxy-2-methylpropyl)sulfanyl]-1H-pyrazolo[3,4-d]pyrimidin-1-yl}-3,4-dihydroxytetrahydrofuran-2-yl]methyl sulfamate], the half-maximal inhibitory concentration (IC50) is 50 to 100 nM and the inhibition at 0.123 µM was 71%.
Turning to `C#Cc1nn([C@@H]2O[C@H](COS(N)(=O)=O)[C@@H](O)[C@H]2O)c2ncnc(N)c12` [Compound I-9, [(2R,3S,4R,5R)-5-(4-amino-3-ethynyl-1H-pyrazolo[3,4-d]pyrimidin-1-yl)-3,4-dihydroxytetrahydrofuran-2-yl]methyl Sulfamate], the IC50 fell in the range of 50 to 100 nM and the inhibition at 0.069 µM came out at 52%.
Regarding `CCSc1nn([C@@H]2O[C@H](COS(N)(=O)=O)[C@@H](O)[C@H]2O)c2ncnc(N)c12` [Compound I-51, {(2R,3S,4R,5R)-5-[4-amino-3-(ethylsulfanyl)-1H-pyrazolo[3,4-d]pyrimidin-1-yl]-3,4-dihydroxytetrahydrofuran-2-yl}methyl sulfamate], the half-maximal inhibitory concentration (IC50) is 20 to 50 nM and the inhibition at 0.123 µM is 85%.
`Nc1ncnc2c1c(Sc1ccc3c(c1)CCC3)nn2[C@H]1C[C@H](O)[C@H](COS(N)(=O)=O)O1` [Compound I-216, {(2S,3S,5R)-5-[4-amino-3-(2,3-dihydro-1H-inden-5-ylsulfanyl)-1H-pyrazolo[3,4-d]pyrimidin-1-yl]-3-hydroxytetrahydrofuran-2-yl}methyl sulfamate]: the IC50 was 100 to 500 nM and the inhibition at 0.111 µM stood at 41%.
For `Nc1ncnc2c1c(I)nn2[C@H]1C[C@H](O)[C@@H](COS(N)(=O)=O)O1` [Compound I-192, [(2R,3S,5R)-5-(4-amino-3-iodo-1H-pyrazolo[3,4-d]pyrimidin-1-yl)-3-hydroxytetrahydrofuran-2-yl]methyl Sulfamate], the half-maximal inhibitory concentration (IC50) lay in the range of 50 to 100 nM and the inhibition at 0.111 µM is 61%.
With `Nc1ncnc2c1c(C(F)(F)F)nn2[C@H]1C[C@H](O)[C@@H](COS(N)(=O)=O)O1` [Compound I-171, {(2R,3S,5R)-5-[4-amino-3-(trifluoromethyl)-1H-pyrazolo[3,4-d]pyrimidin-1-yl]-3-hydroxytetrahydrofuran-2-yl}methyl Sulfamate], the IC50 fell in the range of 100 to 500 nM and the inhibition at 0.111 µM was found to be 48%.

The record behind these values is patent publication US10865208B2, “ATG7 inhibitors and the uses thereof” (Millennium Pharmaceuticals, Inc., priority 2016, dated 2020).
